The text below walks through data of patent US20240261417A1, “SOS1 DEGRADING AGENT AND PREPARATION METHOD THEREFOR AND APPLICATION THEREOF” (SHANGHAI LEADINGTAC PHARMACEUTICAL CO. LTD., priority 2021, published 2024).

Structures are written as SMILES.

One assay deals with T1, SOS1 protein (Homo sapiens, UniProt Q07889).
T1 sequence (Q07889 1-1333): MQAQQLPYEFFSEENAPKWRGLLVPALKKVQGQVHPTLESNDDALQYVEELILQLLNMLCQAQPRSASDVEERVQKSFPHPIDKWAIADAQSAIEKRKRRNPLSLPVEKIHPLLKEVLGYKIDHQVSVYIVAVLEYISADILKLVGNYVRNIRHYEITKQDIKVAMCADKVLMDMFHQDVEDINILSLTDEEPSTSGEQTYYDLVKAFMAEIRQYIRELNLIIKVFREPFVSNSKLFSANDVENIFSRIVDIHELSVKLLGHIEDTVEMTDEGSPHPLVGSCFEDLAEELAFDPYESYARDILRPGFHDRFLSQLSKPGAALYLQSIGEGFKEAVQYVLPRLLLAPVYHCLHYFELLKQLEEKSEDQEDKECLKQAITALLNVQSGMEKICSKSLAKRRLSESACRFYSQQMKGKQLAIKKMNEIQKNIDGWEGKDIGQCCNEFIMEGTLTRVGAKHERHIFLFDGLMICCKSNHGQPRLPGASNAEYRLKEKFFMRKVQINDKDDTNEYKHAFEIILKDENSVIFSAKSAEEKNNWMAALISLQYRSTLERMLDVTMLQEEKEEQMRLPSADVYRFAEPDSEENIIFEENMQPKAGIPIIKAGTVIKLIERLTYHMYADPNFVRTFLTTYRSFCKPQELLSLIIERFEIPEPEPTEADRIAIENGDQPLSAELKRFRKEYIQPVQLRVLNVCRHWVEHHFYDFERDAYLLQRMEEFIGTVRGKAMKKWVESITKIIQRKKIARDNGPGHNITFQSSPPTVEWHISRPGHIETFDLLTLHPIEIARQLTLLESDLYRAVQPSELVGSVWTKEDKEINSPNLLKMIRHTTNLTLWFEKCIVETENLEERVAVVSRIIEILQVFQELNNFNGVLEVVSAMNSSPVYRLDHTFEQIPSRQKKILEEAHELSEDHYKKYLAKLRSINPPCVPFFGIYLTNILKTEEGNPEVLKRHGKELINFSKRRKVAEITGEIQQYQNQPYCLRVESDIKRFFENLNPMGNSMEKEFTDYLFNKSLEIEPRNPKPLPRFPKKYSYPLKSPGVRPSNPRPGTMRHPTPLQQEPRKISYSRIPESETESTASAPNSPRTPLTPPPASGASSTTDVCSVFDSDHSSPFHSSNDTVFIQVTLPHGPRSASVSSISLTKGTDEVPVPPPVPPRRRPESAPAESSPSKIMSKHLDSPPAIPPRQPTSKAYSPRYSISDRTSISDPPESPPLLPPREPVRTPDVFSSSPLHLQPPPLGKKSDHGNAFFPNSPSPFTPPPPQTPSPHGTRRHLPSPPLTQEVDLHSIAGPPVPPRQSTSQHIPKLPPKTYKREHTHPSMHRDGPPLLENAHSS
As to the kind of experiment: SOS1 degradation assay (Western blot), NCI-H358 cells. On the set-up: The degradation of SOS1 by the compounds was investigated on KRAS G12C mutant human non-small cell lung cancer cells NCI-H358; host or cells: NCI-H358 (human cancer cell lines). It counts as cell-based. Conditions: SOS1 degradation, NCI-H358 cells, 24 h, Western blot; for DC50: read-out: NCI-H358 (G12C) DC50; for Dmax: read-out: NCI-H358 (G12C) Dmax. An outline of the steps:
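SOS1 degradation was assessed by densitometry of Western blots, relative to untreated controls, after 24 h compound exposure (0.03–3000 nM final, 37 °C, 5% CO2) of cells seeded at 5×10^5/well. Log concentration–response fitting gave DC50 and Dmax.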

The target in a further assay is T2, KRAS-G12C/SOS1 (Homo sapiens, UniProt Q07889).
T2 construct: purchased Cisbio 63ADKOOOCB16PEG
T2 sequence (Q07889 1-1333): T1 sequence (Q07889 1-1333)
As to the kind of experiment: KRAS-G12C/SOS1 binding assay (HTRF). Conditions: inhibition of KRAS-G12C/SOS1 binding. The method, then: The following method was used to determine the extent of inhibition of KRAS-G12C/SOS1 binding by the preferred compounds of the present invention under in vitro conditions. In this method, the competitive inhibition of KRAS-G12C/SOS1 binding by the preferred compounds was assayed by the homogeneous time-resolved fluorescence (HTRF) technology using the KRAS-G12C/SOS1 binding assay kit (Cisbio, 63ADKOOOCB16PEG).
The experimental procedures were as follows (refer to the kit instructions for details): the compounds of the present invention were each firstly dissolved in DMSO at a concentration of 20 mM, and then diluted in an equal gradient with a buffer in the kit, so that the final concentrations of the test compounds in the reaction system were in a range of 10000 nM-0.04 nM, and the final concentration of DMSO was 0.5%. 2 μL of the compounds were each incubated with 4 μL of 1×Tag1-SOS1, 4 μL of 1×Tag2-KRAS-G12C (containing 10 μM guanosine triphosphate, GTP) at 25° C. for 15 min. Then 5 μL of 1× Anti-Tag1-Tb3+ and 5 μL of 1× Anti-Tag2-XL665 were added to the reaction system, and the mixture was incubated on ice for 3 h. After the incubation, the fluorescence intensity of each well was measured at the excitation wavelength of 337 nm, the fluorescence intensity of each well was read at the emission wavelengths of 620 nm and 665 nm on a microplate reader EnVision (PerkinElmer, 2105) in an HTRF mode, and the Ratio value was calculated by the formula Ratio=(665 nm/620 nm)×[…]. The inhibition rates of the compounds at each concentration were calculated by comparing the fluorescence intensity ratio with that of the control group, and then nonlinear curve fitting was performed by GraphPad Prism 8 in the logarithmic concentration-inhibition rate to obtain the IC50 values of the compounds, as shown in Table 1.
(In general: In TR-FRET formats the signal depends on donor and acceptor labels being close together.)

On to `Cc1nc(N[C@H](C)c2cc(N)cc(C(F)(F)F)c2)c2cc([C@H]3CC[C@H](C(=O)N4CCN(CC5CCC6(CC5)CCN(C(=O)c5ccc(Cl)c(N7CCC(=O)NC7=O)c5)CC6)CC4)CC3)c(C)cc2n1` [Example 72, 1-(5-(9-((4-((1R,4R)-4-(4-(((R)-1-(3-amino-5-(trifluoromethyl)phenyl)ethyl)amino)-2,7-dimethylquinazolin-6-yl)cyclohexane-1-carbonyl)piperazin-1-yl)methyl)-3-azaspiro[5.5]undecane-3-carbonyl)-2-chlorophenyl)dihydropyrimidine-2,4(1H,3H)-dione], for which, on SOS1 protein, the DC50 is less than 0.05 µM and the maximal degradation (Dmax) is 50 to 80%. On KRAS-G12C/SOS1, this molecule gave an IC50 of no more than 0.015 µM.
For `COc1cc2nc(C)nc(N[C@H](C)c3cc(N)cc(C(F)(F)F)c3)c2cc1[C@H]1CC[C@H](C(=O)N2CCN(CCN3CCC4(CC3)CCN(C(=O)c3ccc(Cl)c(N5CCC(=O)NC5=O)c3)CC4)CC2)CC1` [Example 3, 1-(5-(9-(2-(4-((1R,4R)-4-(4-(((R)-1-(3-amino-5-(trifluoromethyl)phenyl)ethyl)amino)-7-methoxy-2-methylquinazolin-6-yl)cyclohexane-1-carbonyl)piperazin-1-yl)ethyl)-3,9-diazaspiro[5.5]undecane-3-carbonyl)-2-chlorophenyl)dihydropyrimidine-2,4(1H,3H)-dione] the same measures were less than 0.05 µM, 80 to 100% and no more than 0.015 µM.
For `CNCc1ccccc1-c1csc([C@@H](C)Nc2nc(C)nc3cc(OC)c([C@H]4CC[C@H](C(=O)N(C)CCCC5CCC6(CC5)CCN(C(=O)c5ccc(Cl)c(N7CCC(=O)NC7=O)c5)CC6)CC4)cc23)c1` [Example 49, (1R,4R)—N-(3-(3-(4-chloro-3-(2,4-dioxotetrahydropyrimidin-1(2H)-yl)benzoyl)-3-azaspiro[5.5]undecan-9-yl)propyl)-4-(7-methoxy-2-methyl-4-(((R)-1-(4-(2-((methylamino)methyl)phenyl)thien-2-yl)ethyl)amino)quinazolin-6-yl)-N-methylcyclohexane-1-carboxamide] the same measures were 0.1 to 0.5 µM, 50 to 80% and no more than 0.015 µM.
For `COc1cc2nc(C)nc(N[C@H](C)c3cc(-c4c(Cl)cccc4CN(C)C)cs3)c2cc1[C@H]1CC[C@H](C(=O)N2CCN(CCC3CCC4(CC3)CCN(C(=O)c3ccc(Cl)c(N5CCC(=O)NC5=O)c3)CC4)CC2)CC1` [Example 62, 1-(2-chloro-5-(9-(2-(4-((1R,4R)-4-(4-(((R)-1-(4-(2-chloro-6-((dimethylamino)methyl)phenyl)thien-2-yl)ethyl)amino)-7-methoxy-2-methylquinazolin-6-yl)cyclohexane-1-carbonyl)piperazin-1-yl)ethyl)-3-azaspiro[5.5]undecane-3-carbonyl)phenyl)dihydropyrimidine-2,4(1H,3H)-dione] the same measures were less than 0.05 µM, 80 to 100% and no more than 0.015 µM.
For the molecule `COc1cc2nc(C)nc(N[C@H](C)c3cc(-c4c(Cl)cccc4CN(C)C)cs3)c2cc1[C@H]1CC[C@H](C(=O)N2CCC(CCCOC3CCN(C(=O)c4ccc(Cl)c(N5CCC(=O)NC5=O)c4)CC3)CC2)CC1` [Example 54, 1-(2-chloro-5-(4-(3-(1-((1R,4R)-4-(4-(((R)-1-(4-(2-chloro-6-((dimethylamino)methyl)phenyl)thien-2-yl)ethyl)amino)-7-methoxy-2-methylquinazolin-6-yl)cyclohexane-1-carbonyl)piperidin-4-yl)propoxy)piperidine-1-carbonyl)phenyl)dihydropyrimidine-2,4(1H,3H)-dione], on SOS1 protein, the DC50 was less than 0.05 µM and the Dmax lay in the range of 80 to 100%. At KRAS-G12C/SOS1, this molecule gave a half-inhibitory concentration (IC50) of no more than 0.015 µM.
Turning to `COc1cc2nc(C)nc(N[C@H](C)c3cccc4c3CCS4(=O)=O)c2cc1[C@H]1CC[C@H](C(=O)N2CCC(CCOCC3CCN(C(=O)c4ccc(C(F)(F)F)c(N5CCC(=O)NC5=O)c4)CC3)CC2)CC1` [Example 66, 1-(5-(4-((2-(1-((1R,4R)-4-(4-(((R)-1-(1,1-dioxido-2,3-dihydrobenzo[b]thiophen-4-yl)ethyl)amino)-7-methoxy-2-methylquinazolin-6-yl)cyclohexane-1-carbonyl)piperidin-4-yl)ethoxy)methyl)piperidine-1-carbonyl)-2-(trifluoromethyl)phenyl)dihydropyrimidine-2,4(1H,3H)-dione], the 50% inhibitory concentration (IC50) on KRAS-G12C/SOS1 was no more than 0.015 µM.
The same measure, in the same setting: then `COc1cc2nc(C)nc(N[C@H](C)c3cc(-c4c(Cl)cccc4CN(C)C)cs3)c2cc1[C@H]1CC[C@H](C(=O)N2CCC(CCOCC3CCN(C(=O)c4ccc(OC(F)(F)F)c(N5CCC(=O)NC5=O)c4)CC3)CC2)CC1` [Example 58, 1-(5-(4-((2-(1-((1R,4R)-4-(4-(((R)-1-(4-(2-chloro-6-((dimethylamino)methyl)phenyl)thien-2-yl)ethyl)amino)-7-methoxy-2-methylquinazolin-6-yl)cyclohexane-1-carbonyl)piperidin-4-yl)ethoxy)methyl)piperidine-1-carbonyl)-2-(trifluoromethoxy)phenyl)dihydropyrimidine-2,4(1H,3H)-dione], with no more than 0.015 µM.
Same read-out and setting: as for `COc1cc2nc(C)nc(N[C@H](C)c3cccc4c3CCS4(=O)=O)c2cc1[C@H]1CC[C@H](C(=O)N2CCC(CCOCC3CCN(C(=O)c4ccc(Cl)c(N5CCC(=O)NC5=O)c4)CC3)CC2)CC1` [Example 55, 1-(2-chloro-5-(4-((2-(1-((1R,4R)-4-(4-(((R)-1-(1,1-dioxido-2,3-dihydrobenzo[b]thiophen-4-yl)ethyl)amino)-7-methoxy-2-methylquinazolin-6-yl)cyclohexane-1-carbonyl)piperidin-4-yl)ethoxy)methyl)piperidine-1-carbonyl)phenyl)dihydropyrimidine-2,4(1H,3H)-dione], the figure is no more than 0.015 µM.

In general, DC50 refers to the concentration at which degradation of the target reaches its halfway point. What is called Dmax is the greatest extent of degradation seen. What is called IC50 is the concentration needed to halve the response being measured. A low value points to greater potency.
